Here are results for four compounds from patent EP4786487A1, “PEPTIDE” (Peptidream Inc, priority 2023, dated 2025).

pIC50: −log10 of the molar value. Where two headings read alike, the source gives them in different places. Starred links: 1 amine or outer side, 2 acyl side, 3 side chain; linkers in the order of their positions; H or OH if unused. Positions of bridges follow the written chain, without caps; N, C: chain ends. Non-standard residues stand in square brackets, D forms with d. Residues, ends and D or L forms follow the SMILES beside them. *: point of attachment. Phe(3-OCH2COOH) = N[C@@H](Cc1cccc(OCC(=O)O)c1)C(=O)O; Piperidine(4-CH2CH2CONH2) = NC(=O)CCC1CCN(*)CC1; Phe(4-COOH) = N[C@@H](Cc1ccc(C(=O)O)cc1)C(=O)O; Piperazinyl(4-CH2COOH) = O=C(O)CN1CCN(*)CC1; Gly(decyl) = CCCCCCCCCC[C@H](N)C(=O)O; Gly(N(CH2)3COOH) = O=C(O)CCCNCC(=O)O; X1 = CCCCCCC[C@H](N[*:1])C(=O)[*:2]; NMeF = CN[C@@H](Cc1ccccc1)C(=O)O; 4Pal = N[C@@H](Cc1ccncc1)C(=O)O; NMeE = CN[C@@H](CCC(=O)O)C(=O)O; hSer = N[C@@H](CCO)C(=O)O; NMeA = CN[C@@H](C)C(=O)O; Sar = CNCC(=O)O; nBu = CCCC*

What all share (type): cell-based
Test [1] has as its target T1, Myostatin (Homo sapiens, UniProt O14793).
T1 construct: active myostatin (also called mature myostatin) is a homodimer consisting of two C-terminal growth factor domains; purchased R&D systems 788-G8/CF
T1 sequence (O14793 267-375): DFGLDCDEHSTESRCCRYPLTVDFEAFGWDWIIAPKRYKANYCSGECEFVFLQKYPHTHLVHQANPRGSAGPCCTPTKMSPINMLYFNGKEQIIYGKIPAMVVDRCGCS
Briefly: Reporter gene assay for myostatin signaling in HepG2 cell line, Evaluation Procedure (1), myostatin inhibition. The settings on record: read-out: IC50 (Luciferase) Myostatin HepG2. In outline: (§1)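 HepG2 cells transfected with pGL3(CAGA)12-luciferase reporter, serum-starved in 0.1% BSA medium, then stimulated with myostatin or GDF-11 plus 4-fold peptide dilutions (0.006–100 nmol/L for myostatin, 0.12–2000 nmol/L for GDF-11) for 20–24 h at 37 °C. Luminescence read with One-Glo; IC50 calculated.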
Background: A reporter such as luciferase makes a cellular process visible.

In test [2] the test system is Myostatin. The test is described as above. To be noted: GDF-11 IC50 versus Myostatin IC50. In a few lines: as §1
Another test has as its target T2, GDF-11 (Homo sapiens, UniProt O95390).
T2 construct: purchased R&D systems 1958-GD-G8/CF
T2 sequence (O95390 299-407): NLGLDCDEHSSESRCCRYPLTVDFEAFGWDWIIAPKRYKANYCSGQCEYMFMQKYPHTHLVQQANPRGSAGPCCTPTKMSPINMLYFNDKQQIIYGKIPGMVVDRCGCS
Briefly: Reporter gene assay for myostatin signaling in HepG2 cell line, Evaluation Procedure (1), GDF-11 inhibition. To be noted: read-out: IC50 (Luciferase) GDF-11 HepG2. In a few lines:
as §1

The pIC50 is the IC50 on a negative log10 scale, so that one unit is a factor of ten.

Regarding `CCCCCCCCCC[C@@H]1NC(=O)[C@H](Cc2ccccc2)N(C)C(=O)[C@H](CCCNC(=N)N)NC(=O)[C@H](Cc2ccc(C(=O)O)cc2)NC(=O)[C@H](Cc2cccc(OCC(=O)O)c2)NC(=O)[C@H]2CCCN2C(=O)[C@H]([C@@H](C)CC)NC(=O)[C@H](Cc2ccccc2)N(C)C(=O)[C@H](Cc2ccc(O)cc2)NC(=O)[C@H](Cc2c[nH]c3ccccc23)NC(=O)[C@H](C)NC(=O)[C@H](C)NC(=O)CSC[C@H](C(=O)N2CCN(CC(=O)O)CC2)NC(=O)[C@H](Cc2ccccc2)N(C)C(=O)[C@H](CCC(=O)O)N(C)C1=O` [Myostatin_99_v309] ({CH2CO}-AAWY[NMeF]I[dP][Phe(3-OCH2COOH)][Phe(4-COOH)]R[NMeF][Gly(decyl)][NMeE][NMeF][dC]-{Piperazinyl(4-CH2COOH)}; thioether N-15), the negative-log IC50 (pIC50) at Myostatin [1] (Method B: Myostatin 1 ng/mL) was 10.05; at GDF-11 (Method B: GDF-11 1 ng/mL) it was 7.60. The compound further registered a Selectivity in the test with Myostatin [2] (Method B) of 287.

As to `CCCCCCC[C@@H]1NC(=O)[C@H](Cc2ccccc2)N(C)C(=O)[C@H](CCCNC(=N)N)NC(=O)[C@H](Cc2ccc(C(=O)O)cc2)NC(=O)[C@H](Cc2cccc(OCC(=O)O)c2)NC(=O)CN(C)C(=O)[C@H]([C@@H](C)CC)NC(=O)[C@H](Cc2ccccc2)N(C)C(=O)[C@H](Cc2ccc(O)cc2)NC(=O)[C@H](Cc2c[nH]c3ccccc23)NC(=O)[C@H](C)NC(=O)[C@H](C)NC(=O)CSC[C@H](C(=O)N2CCC(CCC(N)=O)CC2)NC(=O)[C@H](Cc2ccccc2)N(C)C(=O)[C@H](CCC(=O)O)N(C)C1=O` [Myostatin_99_v316] ({CH2CO}-AAWY[NMeF]I[Sar][Phe(3-OCH2COOH)][Phe(4-COOH)]R[NMeF][X1][NMeE][NMeF][dC]-{Piperidine(4-CH2CH2CONH2)}; thioether N-15), the pIC50 was 9.43 on Myostatin [1] (Method B: Myostatin 1 ng/mL) and 7.05 at GDF-11 (Method B: GDF-11 1 ng/mL). This compound had a Selectivity in the test with Myostatin [2] (Method B) of 239.8.

As to `CCCCOCC[C@@H]1NC(=O)[C@H](Cc2ccccc2)N(C)C(=O)[C@H](CCCNC(=N)N)NC(=O)[C@H](Cc2ccc(C(=O)O)cc2)NC(=O)[C@H](Cc2ccncc2)NC(=O)CN(C)C(=O)[C@H]([C@@H](C)CC)NC(=O)[C@H](Cc2ccccc2)N(C)C(=O)[C@H](Cc2ccc(O)cc2)NC(=O)[C@H](Cc2c[nH]c3ccccc23)NC(=O)[C@H](C)NC(=O)CN(CCCC(=O)O)C(=O)CSC[C@H](C(=O)O)NC(=O)[C@H](Cc2ccccc2)N(C)C(=O)[C@H](C)N(C)C1=O` [Myostatin_99_v227] ({CH2CO}-[Gly(N(CH2)3COOH)]AWY[NMeF]I[Sar][4Pal][Phe(4-COOH)]R[NMeF][hSer](nBu)[NMeA][NMeF][dC]-OH; thioether N-15), the negative-log IC50 (pIC50) is 7.68 on Myostatin [1] (Method A: Myostatin 10 ng/mL) and 6.17 at GDF-11 (Method A: GDF-11 10 ng/mL). The compound also showed a Selectivity in the test with Myostatin [2] (Method A) of 33.

Regarding `CC[C@H](C)[C@@H]1NC(=O)[C@H](Cc2ccccc2)N(C)C(=O)[C@H](Cc2ccc(O)cc2)NC(=O)[C@H](Cc2c[nH]c3ccccc23)NC(=O)[C@H](CO)NC(=O)CN(CCCC(=O)O)C(=O)CSC[C@H](C(=O)O)NC(=O)[C@H](Cc2ccccc2)N(C)C(=O)[C@H](C)N(C)C(=O)[C@H](CC(C)C)NC(=O)[C@H](Cc2ccccc2)N(C)C(=O)[C@H](CCCNC(=N)N)NC(=O)[C@H](Cc2ccc(C(=O)O)cc2)NC(=O)[C@H](Cc2ccc(O)cc2)NC(=O)CN(C)C1=O` [Myostatin_99_v171] ({CH2CO}-[Gly(N(CH2)3COOH)]SWY[NMeF]I[Sar]Y[Phe(4-COOH)]R[NMeF]L[NMeA][NMeF][dC]-OH; thioether N-15), the negative logarithm of the IC50 (pIC50) is 7.35 on Myostatin [1] (Method A: Myostatin 10 ng/mL) and 6.04 at GDF-11 (Method A: GDF-11 10 ng/mL). The same compound came in with a Selectivity in the test on Myostatin [2] (Method A) of 20.
